According to PubChem BioAssay AID2060899 (Molecular Pharmacology Branch, DTP, NCI, 2025):

System: 565726-208-R1-J5-PDC complex spheroids, growth inhibition
Test: Anticancer human tumor 565726-208-R1-J5-PDC patient-derived pancreatic adenocarcinoma cell line growth inhibition [RAS]
Conditions: for viability, T/C: stronger effect = lower value
Outline: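 Tumour cells grown as complex spheroids with HUVEC endothelial cells and mesenchymal stem cells, treated with RAS pathway inhibitor combinations. Each agent spans half-log steps from near clinical Cmax, or 10 microM where Cmax is unknown.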

[1] = curve of first compound, second compound 0.000949 µM
[2] = curve of first compound, second compound 0.003 µM
[3] = curve of first compound, second compound 0.00949 µM
[4] = curve of first compound, second compound 0.03 µM
[5] = curve of first compound, second compound 0.0949 µM
[6] = curve of first compound, second compound 0.3 µM
[7] = second compound 0.000949 µM, first compound 0.0316 µM
[8] = second compound 0.000949 µM, first compound 0.1 µM
[9] = second compound 0.000949 µM, first compound 0.316 µM
[10] = second compound 0.000949 µM, first compound 1 µM
[11] = second compound 0.003 µM, first compound 0.0316 µM
[12] = second compound 0.003 µM, first compound 0.1 µM
[13] = second compound 0.003 µM, first compound 0.316 µM
[14] = second compound 0.003 µM, first compound 1 µM
[15] = second compound 0.00949 µM, first compound 0.0316 µM
[16] = second compound 0.00949 µM, first compound 0.1 µM
[17] = second compound 0.00949 µM, first compound 0.316 µM
[18] = second compound 0.00949 µM, first compound 1 µM
[19] = second compound 0.03 µM, first compound 0.0316 µM
[20] = second compound 0.03 µM, first compound 0.1 µM
[21] = second compound 0.03 µM, first compound 0.316 µM
[22] = second compound 0.03 µM, first compound 1 µM
[23] = second compound 0.0949 µM, first compound 0.0316 µM
[24] = second compound 0.0949 µM, first compound 0.1 µM
[25] = second compound 0.0949 µM, first compound 0.316 µM
[26] = second compound 0.0949 µM, first compound 1 µM
[27] = second compound 0.3 µM, first compound 0.0316 µM
[28] = second compound 0.3 µM, first compound 0.1 µM
[29] = second compound 0.3 µM, first compound 0.316 µM
[30] = second compound 0.3 µM, first compound 1 µM
[31] = second compound 0.000949 µM, first compound 0.00316 µM
[32] = second compound 0.000949 µM, first compound 0.01 µM
[33] = second compound 0.003 µM, first compound 0.00316 µM
[34] = second compound 0.003 µM, first compound 0.01 µM
[35] = second compound 0.00949 µM, first compound 0.00316 µM
[36] = second compound 0.00949 µM, first compound 0.01 µM
[37] = second compound 0.03 µM, first compound 0.00316 µM
[38] = second compound 0.03 µM, first compound 0.01 µM
[39] = second compound 0.0949 µM, first compound 0.00316 µM
[40] = second compound 0.0949 µM, first compound 0.01 µM
[41] = second compound 0.3 µM, first compound 0.00316 µM
[42] = second compound 0.3 µM, first compound 0.01 µM
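Also: spheroids exposed to compounds for seven days before readout.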
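For viability, T/C in this document: 100% = DMSO vehicle control viability.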

Q: Which IC50 [1] does the source give for `CCC(CC)c1cc(NC2CCC(N)C2)n2nccc2n1` (configuration not stated) + CCn1c(-c2cc(N3CCN(C)CC3)cnc2C(C)OC)c2c3cc(ccc31)-c1csc(n1)CC(NC(=O)C1CC1C)C(=O)N1CCCC(N1)C(=O)OCC(C)(C)C2 here?
A: 507 nM

Q: What about the IC50 [2] of the same compound?
A: 340 nM

Q: And the IC50 [3]?
A: < 31.6 nM

Q: What about the IC50 [4] of the same compound?
A: < 31.6 nM

Q: And the IC50 [5]?
A: < 31.6 nM

Q: What about the IC50 [6] of the same compound?
A: < 31.6 nM

Q: What about the viability, T/C [7] of the same compound?
A: 61.1%

Q: What about the viability, T/C [8] of the same compound?
A: 60%

Q: And the viability, T/C [9]?
A: 65.7%

Q: What about the viability, T/C [10] of the same compound?
A: 32.4%

Q: And the viability, T/C (second compound 0.000949 µM, first compound 3.16 µM)?
A: 0.45%

Q: What about the viability, T/C (second compound 0.000949 µM, first compound 10 µM) of the same compound?
A: 1.67%

Q: What about the viability, T/C [11] of the same compound?
A: 56.6%

Q: And the viability, T/C [12]?
A: 51.5%

Q: And the viability, T/C [13]?
A: 50%

Q: And the viability, T/C [14]?
A: 27.7%

Q: And the viability, T/C (second compound 0.003 µM, first compound 3.16 µM)?
A: 0.47%

Q: And the viability, T/C (second compound 0.003 µM, first compound 10 µM)?
A: 1.59%

Q: What about the viability, T/C [15] of the same compound?
A: 47.2%

Q: What about the viability, T/C [16] of the same compound?
A: 38.9%

Q: What about the viability, T/C [17] of the same compound?
A: 34%

Q: And the viability, T/C [18]?
A: 24.6%

Q: And the viability, T/C (second compound 0.00949 µM, first compound 3.16 µM)?
A: 0.24%

Q: What about the viability, T/C (second compound 0.00949 µM, first compound 10 µM) of the same compound?
A: 2.02%

Q: And the viability, T/C [19]?
A: 31.3%

Q: And the viability, T/C [20]?
A: 36.5%

Q: And the viability, T/C [21]?
A: 31%

Q: And the viability, T/C [22]?
A: 20.2%

Q: And the viability, T/C (second compound 0.03 µM, first compound 3.16 µM)?
A: 0.4%

Q: And the viability, T/C (second compound 0.03 µM, first compound 10 µM)?
A: 1.85%

Q: What about the viability, T/C [23] of the same compound?
A: 27.4%

Q: And the viability, T/C [24]?
A: 27%

Q: What about the viability, T/C [25] of the same compound?
A: 24.2%

Q: What about the viability, T/C [26] of the same compound?
A: 16.8%

Q: And the viability, T/C (second compound 0.0949 µM, first compound 3.16 µM)?
A: 0.44%

Q: And the viability, T/C (second compound 0.0949 µM, first compound 10 µM)?
A: 1.98%

Q: And the viability, T/C [27]?
A: 23.5%

Q: What about the viability, T/C [28] of the same compound?
A: 27.1%

Q: And the viability, T/C [29]?
A: 23.1%

Q: What about the viability, T/C [30] of the same compound?
A: 13.9%

Q: And the viability, T/C (second compound 0.3 µM, first compound 3.16 µM)?
A: 0.5%

Q: And the viability, T/C (second compound 0.3 µM, first compound 10 µM)?
A: 1.9%

Q: `C=CC(=O)Nc1cc(Nc2nccc(-c3cn(C)c4ccccc34)n2)c(OC)cc1N(C)CCN(C)C` + CCn1c(-c2cc(N3CCN(C)CC3)cnc2C(C)OC)c2c3cc(ccc31)-c1csc(n1)CC(NC(=O)C1CC1C)C(=O)N1CCCC(N1)C(=O)OCC(C)(C)C2 was tested. Which IC50 [1] did it give?
A: 185 nM

Q: And the IC50 [2]?
A: 11 nM

Q: And the IC50 [3]?
A: < 3.16 nM

Q: And the IC50 [4]?
A: < 3.16 nM

Q: What about the IC50 [5] of the same compound?
A: < 3.16 nM

Q: And the IC50 [6]?
A: < 3.16 nM

Q: What about the viability, T/C [31] of the same compound?
A: 63.2%

Q: What about the viability, T/C [32] of the same compound?
A: 62.6%

Q: What about the viability, T/C [7] of the same compound?
A: 59.9%

Q: And the viability, T/C [8]?
A: 56.4%

Q: And the viability, T/C [9]?
A: 44.6%

Q: And the viability, T/C [10]?
A: 34.3%

Q: And the viability, T/C [33]?
A: 58.9%

Q: What about the viability, T/C [34] of the same compound?
A: 44.3%

Q: What about the viability, T/C [11] of the same compound?
A: 49.2%

Q: What about the viability, T/C [12] of the same compound?
A: 38.8%

Q: What about the viability, T/C [13] of the same compound?
A: 36.1%

Q: What about the viability, T/C [14] of the same compound?
A: 28.2%

Q: And the viability, T/C [35]?
A: 43.2%

Q: What about the viability, T/C [36] of the same compound?
A: 38.3%

Q: What about the viability, T/C [15] of the same compound?
A: 34.9%

Q: What about the viability, T/C [16] of the same compound?
A: 30.9%

Q: And the viability, T/C [17]?
A: 24.7%

Q: And the viability, T/C [18]?
A: 20.4%

Q: And the viability, T/C [37]?
A: 30.4%

Q: What about the viability, T/C [38] of the same compound?
A: 30.1%

Q: And the viability, T/C [19]?
A: 29.6%

Q: What about the viability, T/C [20] of the same compound?
A: 25.1%

Q: And the viability, T/C [21]?
A: 19%

Q: And the viability, T/C [22]?
A: 15.5%

Q: And the viability, T/C [39]?
A: 28.3%

Q: And the viability, T/C [40]?
A: 24.6%

Q: What about the viability, T/C [23] of the same compound?
A: 21.4%

Q: And the viability, T/C [24]?
A: 18.2%

Q: What about the viability, T/C [25] of the same compound?
A: 16.4%

Q: And the viability, T/C [26]?
A: 14.7%

Q: And the viability, T/C [41]?
A: 23.4%

Q: What about the viability, T/C [42] of the same compound?
A: 21.2%

Q: What about the viability, T/C [27] of the same compound?
A: 18.8%

Q: And the viability, T/C [28]?
A: 16.3%

Q: What about the viability, T/C [29] of the same compound?
A: 15.5%

Q: And the viability, T/C [30]?
A: 11.6%

Q: Which results are given for `CCc1c2c(nc3ccc(O)cc13)-c1cc3c(c(=O)n1C2)COC(=O)[C@]3(O)CC`?
A: viability, T/C (compound 0.000949 µM): 77.2% [middle of 4 runs]; viability, T/C (compound 0.00949 µM): 34.4% [middle of 4 runs]; viability, T/C (compound 0.03 µM): 19.3% [middle of 4 runs]; viability, T/C (compound 0.0949 µM): 12.7% [middle of 4 runs]; viability, T/C (compound 0.3 µM): 7.31% [middle of 4 runs]; IC50 (curve of compound): 2.78 nM [middle of 4 runs]

Q: Which results are given for `CCN1CCN(Cc2ccc(Nc3ncc(F)c(-c4cc(F)c5nc(C)n(C(C)C)c5c4)n3)nc2)CC1` + CCn1c(-c2cccnc2C(C)OC)c2c3cc(ccc31)N1CCOC(CC(NC(=O)C(C(C)C)N(C)C(=O)C3(F)CCN(C(=O)C#CC(C)(C)N(C)C)CC3)C(=O)N3CCCC(N3)C(=O)OCC(C)(C)C2)C1?
A: IC50 [1]: > 1000 nM; IC50 [2]: > 1000 nM; IC50 [3]: > 1000 nM; IC50 [4]: > 1000 nM; IC50 [5]: > 1000 nM; IC50 [6]: > 1000 nM; viability, T/C [31]: 93.5%; viability, T/C [32]: 91.2%; viability, T/C [7]: 80.6%; viability, T/C [8]: 74%; viability, T/C [9]: 59.3%; viability, T/C [10]: 56.2%; viability, T/C [33]: 105%; viability, T/C [34]: 96%; viability, T/C [11]: 84.3%; viability, T/C [12]: 74.7%; viability, T/C [13]: 60.4%; viability, T/C [14]: 61%; viability, T/C [35]: 97.7%; viability, T/C [36]: 89.8%; viability, T/C [15]: 84.4%; viability, T/C [16]: 69.4%; viability, T/C [17]: 64.3%; viability, T/C [18]: 56%; viability, T/C [37]: 91.5%; viability, T/C [38]: 94.3%; viability, T/C [19]: 85.1%; viability, T/C [20]: 72.7%; viability, T/C [21]: 62%; viability, T/C [22]: 57.4%; viability, T/C [39]: 95%; viability, T/C [40]: 94.7%; viability, T/C [23]: 85.7%; viability, T/C [24]: 67.9%; viability, T/C [25]: 54.1%; viability, T/C [26]: 59.5%; viability, T/C [41]: 85%; viability, T/C [42]: 82.1%; viability, T/C [27]: 76.5%; viability, T/C [28]: 64.1%; viability, T/C [29]: 56.2%; viability, T/C [30]: 55.3%
